Key:
Format in all cases: functional
A498 [1] = assay: Anticancer activity against human A498 cells assessed cell growth at 10 uM after 48 hrs by sulforhodamine B assay relative to control
MOLT-4 = assay: Anticancer activity against human MOLT4 cells assessed cell growth at 10 uM after 48 hrs by sulforhodamine B assay relative to control
UACC-62 [2] = assay: Anticancer activity against human UACC62 cells assessed cell growth at 10 uM after 48 hrs by sulforhodamine B assay relative to control
HCC 2998 = assay: Anticancer activity against human HCC2998 cells assessed cell growth at 10 uM after 48 hrs by sulforhodamine B assay relative to control
COLO 205 = assay: Anticancer activity against human COLO205 cells assessed cell growth at 10 uM after 48 hrs by sulforhodamine B assay relative to control
A549 = assay: Anticancer activity against human A549 cells assessed cell growth at 10 uM after 48 hrs by sulforhodamine B assay relative to control
OVCAR-3 [3] = assay: Anticancer activity against human OVCAR-3 cells assessed cell growth at 10 uM after 48 hrs by sulforhodamine B assay relative to control
HT-29 = assay: Anticancer activity against human HT-29 cells assessed cell growth at 10 uM after 48 hrs by sulforhodamine B assay relative to control
NCI/ADR-RES [4] = assay: Anticancer activity against human NCI/ADR-RES cells assessed cell growth at 10 uM after 48 hrs by sulforhodamine B assay relative to control
M14 = assay: Anticancer activity against human M14 cells assessed cell growth at 10 uM after 48 hrs by sulforhodamine B assay relative to control
NCI-H226 [5] = assay: Anticancer activity against human NCI-H226 cells assessed cell growth at 10 uM after 48 hrs by sulforhodamine B assay relative to control
SR = assay: Anticancer activity against human SR cells assessed cell growth at 10 uM after 48 hrs by sulforhodamine B assay relative to control
K562 = assay: Anticancer activity against human K562 cells assessed cell growth at 10 uM after 48 hrs by sulforhodamine B assay relative to control
SK-MEL-5 [6] = assay: Anticancer activity against human SK-MEL-5 cells assessed cell growth at 10 uM after 48 hrs by sulforhodamine B assay relative to control
EKVX = assay: Anticancer activity against human EKVX cells after 48 hrs by sulforhodamine B assay; conditions: Homo sapiens, EKVX, 48 h
786-0 = assay: Anticancer activity against human 786-0 cells after 48 hrs by sulforhodamine B assay; conditions: Homo sapiens, 786-0, 48 h
SF-268 = assay: Anticancer activity against human SF268 cells after 48 hrs by sulforhodamine B assay; conditions: Homo sapiens, SF-268, 48 h
UACC-62 [7] = assay: Anticancer activity against human UACC62 cells after 48 hrs by sulforhodamine B assay; conditions: Homo sapiens, UACC-62, 48 h
SNB-75 = assay: Anticancer activity against human SNB75 cells after 48 hrs by sulforhodamine B assay; conditions: Homo sapiens, SNB-75, 48 h
NCI/ADR-RES [8] = assay: Anticancer activity against human NCI/ADR-RES cells after 48 hrs by sulforhodamine B assay; conditions: Homo sapiens, NCI/ADR-RES, 48 h
NCI-H460 = assay: Anticancer activity against human NCI-H460 cells after 48 hrs by sulforhodamine B assay; conditions: Homo sapiens, NCI-H460, 48 h
[9] = Anticancer activity against human Hs 578T cells after 48 hrs by sulforhodamine B assay; conditions: Homo sapiens, Hs-578T, 48 h
CCRF-CEM = assay: Anticancer activity against human CCRF-CEM cells after 48 hrs by sulforhodamine B assay
UO-31 = assay: Anticancer activity against human UO31 cells after 48 hrs by sulforhodamine B assay; conditions: Homo sapiens, UO-31, 48 h
UACC-257 = assay: Anticancer activity against human UACC257 cells after 48 hrs by sulforhodamine B assay; conditions: Homo sapiens, UACC-257, 48 h
LOX IMVI = assay: Anticancer activity against human LOXIMVI cells after 48 hrs by sulforhodamine B assay; conditions: Homo sapiens, LOX IMVI, 48 h
SW-620 = assay: Anticancer activity against human SW620 cells after 48 hrs by sulforhodamine B assay
SNB-19 = assay: Anticancer activity against human SNB19 cells after 48 hrs by sulforhodamine B assay; conditions: Homo sapiens, SNB-19, 48 h
NCI-H226 [10] = assay: Anticancer activity against human NCI-H226 cells after 48 hrs by sulforhodamine B assay; conditions: Homo sapiens, NCI-H226, 48 h
T47D = assay: Anticancer activity against human T47D cells after 48 hrs by sulforhodamine B assay; conditions: Homo sapiens, T47D, 48 h
NCI-H522 = assay: Anticancer activity against human NCI-H522 cells after 48 hrs by sulforhodamine B assay; conditions: Homo sapiens, NCI-H522, 48 h
MDA-MB-231 = assay: Anticancer activity against human MDA-MB-231 cells after 48 hrs by sulforhodamine B assay; conditions: Homo sapiens, MDA-MB-231, 48 h
PC-3 = assay: Anticancer activity against human PC3 cells after 48 hrs by sulforhodamine B assay; conditions: Homo sapiens, PC-3, 48 h
OVCAR-4 = assay: Anticancer activity against human OVCAR4 cells after 48 hrs by sulforhodamine B assay; conditions: Homo sapiens, OVCAR-4, 48 h
A498 [11] = assay: Anticancer activity against human A498 cells after 48 hrs by sulforhodamine B assay; conditions: Homo sapiens, A498, 48 h
HOP-62 = assay: Anticancer activity against human HOP62 cells after 48 hrs by sulforhodamine B assay; conditions: Homo sapiens, HOP-62, 48 h
SK-MEL-5 [12] = assay: Anticancer activity against human SK-MEL-5 cells after 48 hrs by sulforhodamine B assay
DU-145 = assay: Anticancer activity against human DU145 cells after 48 hrs by sulforhodamine B assay
CAKI-1 = assay: Anticancer activity against human Caki1 cells after 48 hrs by sulforhodamine B assay; conditions: Homo sapiens, CAKI-1, 48 h
SF-295 = assay: Anticancer activity against human SF295 cells after 48 hrs by sulforhodamine B assay; conditions: Homo sapiens, SF-295, 48 h
OVCAR-3 [13] = assay: Anticancer activity against human OVCAR-3 cells after 48 hrs by sulforhodamine B assay; conditions: Homo sapiens, OVCAR-3, 48 h
[14] = read-out: LC50 (the source's name)

For COCC[n+]1ccn(C)c1.O=S(=O)([N-]S(=O)(=O)C(F)(F)F)C(F)(F)F, the Activity (A498 [1]) was 75.43%, the Activity (MOLT-4) was 105.9% and the Activity (UACC-62 [2]) was 105.79%. The Activity (HCC 2998) was 101.04%, the Activity (COLO 205) was 130.61% and the Activity (A549) was 101.69%. For the same compound, the Activity (OVCAR-3 [3]) was 116.33%, the Activity (HT-29) was 111.85% and the Activity (NCI/ADR-RES [4]) was 100.1%. It also gave an Activity (M14) of 110.1%, an Activity (NCI-H226 [5]) of 100.3% and an Activity (SR) of 116.69%. For the same compound, the Activity (K562) was 109.67% and the Activity (SK-MEL-5 [6]) was 100.51%.

With CCCCCCCC[n+]1ccn(C)c1.F[P-](F)(F)(F)(F)F the Activity (A498 [1]) was 85.75%, the Activity (MOLT-4) was 86.46% and the Activity (UACC-62 [2]) was 90.01%. It also gave an Activity (HCC 2998) of 75.73%, an Activity (COLO 205) of 66.27% and an Activity (A549) of 82.75%. It also gave an Activity (OVCAR-3 [3]) of 86.51%, an Activity (HT-29) of 61.42% and an Activity (NCI/ADR-RES [4]) of 97.14%. For the same compound, the Activity (M14) was 81.87%, the Activity (NCI-H226 [5]) was 72.91% and the Activity (SR) was 95.02%. It also gave an Activity (K562) of 70.78% and an Activity (SK-MEL-5 [6]) of 76.82%.

With CCCCCCCC[n+]1ccn(C)c1.F[B-](F)(F)F the Activity (A498 [1]) was 99.32%, the Activity (MOLT-4) was 92.94% and the Activity (UACC-62 [2]) was 90.08%. The Activity (HCC 2998) was 70.57%, the Activity (COLO 205) was 77.64% and the Activity (A549) was 89.22%. The Activity (OVCAR-3 [3]) was 102.92%, the Activity (HT-29) was 70.49% and the Activity (NCI/ADR-RES [4]) was 91.95%. It also gave an Activity (M14) of 87.56%, an Activity (NCI-H226 [5]) of 75.04% and an Activity (SR) of 87.14%. The Activity (K562) was 81.46% and the Activity (SK-MEL-5 [6]) was 81.77%.

In the case of CCCCCCCCOS(=O)(=O)[O-].CCCCCCCC[n+]1ccn(C)c1, the Activity (A498 [1]) was 90.58%, the Activity (MOLT-4) was 86.99% and the Activity (UACC-62 [2]) was 85.18%. It also gave an Activity (HCC 2998) of 69.81%, an Activity (COLO 205) of 82.4% and an Activity (A549) of 82.78%. For the same compound, the Activity (OVCAR-3 [3]) was 81.64%, the Activity (HT-29) was 67.62% and the Activity (NCI/ADR-RES [4]) was 94.1%. The Activity (M14) was 84%, the Activity (NCI-H226 [5]) was 74.07% and the Activity (SR) was 82.08%. The Activity (K562) was 93.71% and the Activity (SK-MEL-5 [6]) was 74.87%.

For CCCCCCCCCCCC[n+]1ccn(C)c1.[Cl-], the GI50 (EKVX) was 0.873 µM, the CC50 (EKVX; [14]) was > 100 µM and the GI50 (786-0) was 3.36 µM. The Activity (A498 [1]) was 12.45%, the GI50 (SF-268) was 4.68 µM and the CC50 (SF-268; [14]) was > 100 µM. The Activity (MOLT-4) was 78.62%, the GI50 (UACC-62 [7]) was 3.12 µM and the GI50 (SNB-75) was 2.74 µM. For the same compound, the CC50 (SNB-75; [14]) was 56.8 µM, the GI50 (NCI/ADR-RES [8]) was 55 µM and the Activity (UACC-62 [2]) was 31.07%. For the same compound, the GI50 (NCI-H460) was 3.39 µM, the GI50 [9] was 3.13 µM and the CC50 [9, 14] was > 100 µM. It also gave an Activity (HCC 2998) of 31.07%, a GI50 (CCRF-CEM) of 0.54 µM and a GI50 (UO-31) of 10.2 µM. The Activity (COLO 205) was 8.8%, the Activity (A549) was 32.62% and the GI50 (UACC-257) was 1.68 µM. The Activity (OVCAR-3 [3]) was 45.92%, the GI50 (LOX IMVI) was 1.72 µM and the CC50 (LOX IMVI; [14]) was 45.3 µM. For the same compound, the GI50 (SW-620) was 2.97 µM, the GI50 (SNB-19) was 6.76 µM and the CC50 (SNB-19; [14]) was > 100 µM. It also gave an Activity (HT-29) of 12.35%, a GI50 (NCI-H226 [10]) of 3.55 µM and a GI50 (T47D) of 4.29 µM. The CC50 (T47D; [14]) was > 100 µM, the GI50 (NCI-H522) was 2.37 µM and the GI50 (MDA-MB-231) was 3.39 µM. The CC50 (MDA-MB-231; [14]) was 63.6 µM, the Activity (NCI/ADR-RES [4]) was 82.17% and the Activity (M14) was 8.94%. The GI50 (PC-3) was 1.82 µM, the CC50 (PC-3; [14]) was > 100 µM and the GI50 (OVCAR-4) was 3.17 µM. For the same compound, the CC50 (OVCAR-4; [14]) was > 100 µM, the GI50 (A498 [11]) was 4.28 µM and the CC50 (A498 [11]; [14]) was > 100 µM. The GI50 (HOP-62) was 4.86 µM, the CC50 (HOP-62; [14]) was > 100 µM and the Activity (NCI-H226 [5]) was 30.42%. It also gave an Activity (SR) of 103.6%, a GI50 (SK-MEL-5 [12]; Homo sapiens, SK-MEL-5, 48 h) of 1.22 µM and a CC50 (SK-MEL-5 [12]; [14]) of 7.8 µM. It also gave an Activity (K562) of 64.21%, an Activity (SK-MEL-5 [6]) of -33.13% and a GI50 (DU-145) of 0.688 µM. For the same compound, the CC50 (DU-145; Homo sapiens, DU-145, 48 h, read-out: LC50 (the source's name)) was > 100 µM, the GI50 (CAKI-1) was 1.79 µM and the GI50 (SF-295) was 2.36 µM. The CC50 (SF-295; [14]) was > 100 µM and the GI50 (OVCAR-3 [13]) was 2.84 µM.

— ChEMBL document CHEMBL1153245, “A profile of the in vitro anti-tumor activity of imidazolium-based ionic liquids” (2010)
